Assay results published in publication PMC6010098, “Synthesis, antitumour and antioxidant activities of novel α,β-unsaturated ketones and related heterocyclic analogues: EGFR inhibition and molecular modelling study” (Journal of Enzyme Inhibition and Medicinal Chemistry, 2018).
Like-named read-outs stand apart in the source and are kept apart here.

Experiments:
HeLa cells = assay: MTT antitumour assay, HeLa; assay type: cell-based; settings: human cervical epithelioid carcinoma cell line, mean ± SD, n = 3
Method: (§1) The evaluation of the antitumour activity was performed using tetrazolium salt MTT (3-(4,5-dimethyl-2-thiazolyl)-2,5-diphenyl-2H-tetrazolium bromide) assay as reported[62]^,[63].
The designed compounds were evaluated for their in vitro antitumour effects via the standard 3-(4,5-dimethylthiazol-2-yl)-2,5-diphenyltetrazolium bromide (MTT) method against a panel of four human tumour cell lines; namely, hepatocellular carcinoma cell line (HepG2), breast cancer cell line (MCF-7), human cervical cancer cell line (HeLa), and prostate cancer cell line (PC-3)[62]^,[63]^,[72].

HepG2 cells = assay: MTT antitumour assay, HepG2; assay type: cell-based; settings: human hepato-cellular carcinoma cell line, mean ± SD, n = 3
Method: as §1
(§2) The designed compounds were evaluated for their in vitro antitumour effects via the standard 3-(4,5-dimethylthiazol-2-yl)-2,5-diphenyltetrazolium bromide (MTT) method against a panel of four human tumour cell lines; namely, hepatocellular carcinoma cell line (HepG2), breast cancer cell line (MCF-7), human cervical cancer cell line (HeLa), and prostate cancer cell line (PC-3)[62]^,[63]^,[72]. The antitumour activities of the designed compounds 4–12, along with that of the reference drugs 5-FU and afatinib are shown in Table 1.

PC-3 cells = assay: MTT antitumour assay, PC-3; assay type: cell-based; settings: human prostate cancer cell line, mean ± SD, n = 3
Method: as §1, §2

MCF-7 cells = assay: MTT antitumour assay, MCF-7; assay type: cell-based; settings: MCF7, human breast adenocarcinoma cell line, mean ± SD, n = 3
Method: as §1, §2

[1] = ABTS radical cation scavenging (antioxidant) assay; settings: 20 µl of 1 mg/ml test sample (L-ascorbic acid 20 µl, 2 mM)
Method: The absorbance (Acontrol) of a green-blue solution (ABTS^+ radical solution) resulted from a mixture of ABTS and manganese dioxide (MnO2) and was recorded at λmax 734 nm, according to the reported procedure[64]^,[65]. The absorbance (Atest) was measured upon the addition of 20 µl of 1 mg/ml solution of the test sample in spectroscopic grade methanol/phosphate buffer (1:1 v/v) to the ABTS solution. The decrease in absorbance is expressed as % inhibition, which can be calculated from the following equation: % inhibition = Acontrol-Atest/Acontrol×100.
L-Ascorbic acid 20 µl (2 mM) solution was used as standard antioxidant (positive control). A blank sample was run using only methanol/phosphate buffer (1:1), while the negative control was run with ABTS and the methanol/phosphate buffer.
The assay is based on measuring the ability of the tested compounds to scavenge the long-life radical cation of ABTS[22]^,[43]^,[64]^,[65].

EGFR kinase = EGFR kinase (Homo sapiens, UniProt P00533); assay: ELISA-based EGFR kinase inhibition assay; settings: for inhibition at 0.15 µM: read-out: % Inhibition EGFR, 0.15 μM; for inhibition at 0.31 µM: read-out: % Inhibition EGFR, 0.31 μM; for inhibition at 0.625 µM: read-out: % Inhibition EGFR, 0.625 μM; for inhibition at 1.25 µM: read-out: % Inhibition EGFR, 1.25 μM; for inhibition at 2.5 µM: read-out: % Inhibition EGFR, 2.5 μM; for inhibition at 5 µM: read-out: % Inhibition EGFR, 5.0 μM; for inhibition at 10 µM: read-out: % Inhibition EGFR, 10.0 μM; for Conc. (Average), ELISA read-out: duplicate wells, standards in ng/ml, cont 134.9
[2] = test system: HepG2, MCF-7, HeLa, and PC-3 cancer cell lines; assay: MTT antitumour assay, range over the four cell lines; assay type: cell-based, human; settings: range over HepG2, MCF-7, HeLa, PC-3 (and over the compounds named), read-out: IC50 range against the tested cell lines
Method: as §1, §2

EGFR kinase, sequence (P00533 25-1210): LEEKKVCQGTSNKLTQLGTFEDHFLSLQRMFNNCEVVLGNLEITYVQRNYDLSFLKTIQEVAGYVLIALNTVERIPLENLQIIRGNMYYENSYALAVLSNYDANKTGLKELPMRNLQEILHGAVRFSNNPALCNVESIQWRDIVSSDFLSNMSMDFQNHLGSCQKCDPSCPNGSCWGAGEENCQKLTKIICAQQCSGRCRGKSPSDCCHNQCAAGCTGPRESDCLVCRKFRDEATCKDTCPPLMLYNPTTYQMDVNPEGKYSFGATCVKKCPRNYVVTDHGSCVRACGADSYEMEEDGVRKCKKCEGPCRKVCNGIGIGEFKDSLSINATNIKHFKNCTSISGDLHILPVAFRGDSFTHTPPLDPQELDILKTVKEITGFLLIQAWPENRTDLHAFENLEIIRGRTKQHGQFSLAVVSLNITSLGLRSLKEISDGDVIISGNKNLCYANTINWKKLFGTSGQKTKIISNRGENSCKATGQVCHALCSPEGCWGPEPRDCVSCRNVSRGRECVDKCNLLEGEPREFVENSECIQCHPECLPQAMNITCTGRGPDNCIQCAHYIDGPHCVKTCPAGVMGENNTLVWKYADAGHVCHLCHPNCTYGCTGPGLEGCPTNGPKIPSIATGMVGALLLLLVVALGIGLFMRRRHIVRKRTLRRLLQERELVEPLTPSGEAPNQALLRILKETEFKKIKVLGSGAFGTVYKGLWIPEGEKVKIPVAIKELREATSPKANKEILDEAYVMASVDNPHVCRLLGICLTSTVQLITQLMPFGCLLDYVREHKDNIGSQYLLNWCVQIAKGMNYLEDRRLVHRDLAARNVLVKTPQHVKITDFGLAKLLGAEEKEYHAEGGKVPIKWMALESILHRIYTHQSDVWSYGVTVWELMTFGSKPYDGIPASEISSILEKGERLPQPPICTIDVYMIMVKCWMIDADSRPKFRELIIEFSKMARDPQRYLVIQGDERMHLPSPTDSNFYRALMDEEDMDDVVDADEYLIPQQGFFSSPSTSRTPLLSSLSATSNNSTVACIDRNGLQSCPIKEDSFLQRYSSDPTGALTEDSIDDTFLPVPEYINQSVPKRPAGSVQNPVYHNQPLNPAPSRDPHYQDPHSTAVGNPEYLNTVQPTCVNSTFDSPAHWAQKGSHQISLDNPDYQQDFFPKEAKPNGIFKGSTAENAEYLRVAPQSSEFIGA

Compound: O=C1CCCCC1=Cc1ccc(OC2CCCC2)cc1 [5b, 2-(4-(Cyclopentyloxy)benzylidene)cyclohexanone]
- IC50 (HeLa cells): 30.1 ± 2.24 µM
- IC50 (HepG2 cells): 55.4 ± 3.95 µM
- IC50 (PC-3 cells; PC-3, MTT): 71.1 ± 4.93 µM
- IC50 (MCF-7 cells): 49.4 ± 3.16 µM
- %Inhibition of the ABTS radical cation [1]: 51.4%

Compound: CN1CCC(=O)C(=Cc2ccc(OC3CCCC3)cc2)C1 [6a, 3-(4-(Cyclopentyloxy)benzylidene)-1-methylpiperidin-4-one]
- IC50 (EGFR kinase): 4660 nM
- % Inhibition EGFR (EGFR kinase; 0.15 μM): 6.67%
- % Inhibition EGFR (EGFR kinase; 0.31 μM): 18.16%
- % Inhibition EGFR (EGFR kinase; 0.625 μM): 26.84%
- % Inhibition EGFR (EGFR kinase; 1.25 μM): 34.55%
- % Inhibition EGFR (EGFR kinase; 2.5 μM): 44.35%
- % Inhibition EGFR (EGFR kinase; 5.0 μM): 50.34%
- % Inhibition EGFR (EGFR kinase; 10.0 μM): 57.65%
- inhibition at 0.15 µM (EGFR kinase): 6.67%
- inhibition at 0.31 µM (EGFR kinase): 18.2%
- inhibition at 0.625 µM (EGFR kinase): 26.8%
- inhibition at 1.25 µM (EGFR kinase): 34.6%
- inhibition at 2.5 µM (EGFR kinase): 44.4%
- inhibition at 5 µM (EGFR kinase): 50.3%
- inhibition at 10 µM (EGFR kinase): 57.7%
- Conc. (Average), ELISA read-out (EGFR kinase; sample at 0.15uM): 125.9
- Conc. (Average), ELISA read-out (EGFR kinase; sample at 0.31uM): 110.4
- Conc. (Average), ELISA read-out (EGFR kinase; sample at 0.62uM): 98.68
- Conc. (Average), ELISA read-out (EGFR kinase; sample at 1.25uM): 88.29
- Conc. (Average), ELISA read-out (EGFR kinase; sample at 2.5uM): 75.07
- Conc. (Average), ELISA read-out (EGFR kinase; sample at 5uM): 66.98
- Conc. (Average), ELISA read-out (EGFR kinase; sample at 10uM): 57.13
- IC50 (HeLa cells): 9.4 ± 0.98 µM
- IC50 (HepG2 cells): 15.9 ± 1.02 µM
- IC50 ([2]; Homo sapiens): 5.5 to 18.1 µM
- IC50 (PC-3 cells; PC-3, MTT): 10.5 ± 0.97 µM
- IC50 (MCF-7 cells): 18.1 ± 1.58 µM
- %Inhibition of the ABTS radical cation [1]: 54.3%

Compound: O=c1[nH]cc(F)c(=O)[nH]1 [5-FU, 5-fluorouracil, reference compound]
- IC50 (HeLa cells): 4.8 ± 0.21 µM
- IC50 (HepG2 cells): 7.9 ± 0.17 µM
- IC50 ([2]; Homo sapiens): 4.8 to 8.3 µM
- IC50 (PC-3 cells; PC-3, MTT): 8.3 ± 0.35 µM
- IC50 (MCF-7 cells): 5.4 ± 0.2 µM

Compound: O=C1O[C@H]([C@@H](O)CO)C(O)=C1O [Ascorbic acid, L-Ascorbic acid, reference compound]
- %Inhibition of the ABTS radical cation [1]: 90.0%

Compound: O=C1CCCCCC1=Cc1ccc(OC2CCCC2)cc1 [5c, 2-(4-(Cyclopentyloxy)benzylidene)cycloheptanone]
- IC50 (HeLa cells): 37.5 ± 2.81 µM
- IC50 (HepG2 cells): 71.3 ± 4.53 µM
- IC50 (PC-3 cells; PC-3, MTT): 26.9 ± 1.89 µM
- IC50 (MCF-7 cells): 64.7 ± 4.27 µM
- %Inhibition of the ABTS radical cation [1]: 51.0%

Compound: CC(=O)C=Cc1ccc(OC2CCCC2)cc1 [4a, 4-(4-(Cyclopentyloxy)phenyl)but-3-en-2-one]
- IC50 (HeLa cells): 25.7 ± 1.97 µM
- IC50 (HepG2 cells): 27.3 ± 1.96 µM
- IC50 ([2]; Homo sapiens): 21.8 to 40.9 µM
- IC50 (PC-3 cells; PC-3, MTT): 21.8 ± 1.68 µM
- IC50 (MCF-7 cells): 40.9 ± 2.79 µM
- %Inhibition of the ABTS radical cation [1]: 52.0%

Compound: Cc1ccc(C2=NN(c3ccccc3)C(c3ccc(OC4CCCC4)cc3)C2)cc1 (centres unmarked) [8b, 5-(4-(Cyclopentyloxy)phenyl)-1-phenyl-3-(4-methylphenyl)-4,5-dihydro-1H-pyrazole]
- IC50 (EGFR kinase): 2160 nM
- % Inhibition EGFR (EGFR kinase; 0.15 μM): 6.96%
- % Inhibition EGFR (EGFR kinase; 0.31 μM): 26.25%
- % Inhibition EGFR (EGFR kinase; 0.625 μM): 43.85%
- % Inhibition EGFR (EGFR kinase; 1.25 μM): 47.28%
- % Inhibition EGFR (EGFR kinase; 2.5 μM): 50.51%
- % Inhibition EGFR (EGFR kinase; 5.0 μM): 60.72%
- % Inhibition EGFR (EGFR kinase; 10.0 μM): 64.88%
- inhibition at 0.15 µM (EGFR kinase): 6.97%
- inhibition at 0.31 µM (EGFR kinase): 26.3%
- inhibition at 0.625 µM (EGFR kinase): 43.9%
- inhibition at 1.25 µM (EGFR kinase): 47.3%
- inhibition at 2.5 µM (EGFR kinase): 50.5%
- inhibition at 5 µM (EGFR kinase): 60.7%
- inhibition at 10 µM (EGFR kinase): 64.9%
- Conc. (Average), ELISA read-out (EGFR kinase; sample at 0.15uM): 125.5
- Conc. (Average), ELISA read-out (EGFR kinase; sample at 0.31uM): 99.48
- Conc. (Average), ELISA read-out (EGFR kinase; sample at 0.62uM): 75.74
- Conc. (Average), ELISA read-out (EGFR kinase; sample at 1.25uM): 71.11
- Conc. (Average), ELISA read-out (EGFR kinase; sample at 2.5uM): 66.76
- Conc. (Average), ELISA read-out (EGFR kinase; sample at 5uM): 52.98
- Conc. (Average), ELISA read-out (EGFR kinase; sample at 10uM): 47.37
- IC50 (HeLa cells): 5.5 ± 0.45 µM
- IC50 (HepG2 cells): 7.2 ± 0.24 µM
- IC50 ([2]; Homo sapiens): 5.5 to 18.1 µM
- IC50 [2]: 5.5 to 7.8 µM
- IC50 (PC-3 cells; PC-3, MTT): 7.8 ± 0.56 µM
- IC50 (MCF-7 cells): 5.6 ± 0.36 µM
- %Inhibition of the ABTS radical cation [1]: 88.5%

Compound: Cc1ccc(C(=O)C=Cc2ccc(OC3CCCC3)cc2)cc1 [4b, 3-(4-(Cyclopentyloxy)phenyl)-1-(4-methylphenyl)prop-2-en-1-one]
- IC50 (HeLa cells): 18.8 ± 1.57 µM
- IC50 (HepG2 cells): 20 ± 1.11 µM
- IC50 (PC-3 cells; PC-3, MTT): 17.1 ± 1.58 µM
- IC50 (MCF-7 cells): 36.4 ± 2.6 µM
- %Inhibition of the ABTS radical cation [1]: 52.6%

Compound: O=C1CCCC1=Cc1ccc(OC2CCCC2)cc1 [5a, 2-(4-(Cyclopentyloxy)benzylidene)cyclopentanone]
- IC50 (HeLa cells): 77.8 ± 4.41 µM
- IC50 (HepG2 cells): > 100 µM
- IC50 (PC-3 cells; PC-3, MTT): 94.1 ± 5.82 µM
- IC50 (MCF-7 cells): > 100 µM

Compound: CCN1CCC(=O)C(=Cc2ccc(OC3CCCC3)cc2)C1 [6b, 3-(4-(Cyclopentyloxy)benzylidene)-1-ethylpiperidin-4-one]
- IC50 (EGFR kinase): 560 nM
- % Inhibition EGFR (EGFR kinase; 0.15 μM): 26.52%
- % Inhibition EGFR (EGFR kinase; 0.31 μM): 48.95%
- % Inhibition EGFR (EGFR kinase; 0.625 μM): 55.33%
- % Inhibition EGFR (EGFR kinase; 1.25 μM): 61.23%
- % Inhibition EGFR (EGFR kinase; 2.5 μM): 64.44%
- % Inhibition EGFR (EGFR kinase; 5.0 μM): 76.71%
- % Inhibition EGFR (EGFR kinase; 10.0 μM): 83.66%
- inhibition at 0.15 µM (EGFR kinase): 26.5%
- inhibition at 0.31 µM (EGFR kinase): 49%
- inhibition at 0.625 µM (EGFR kinase): 55.3%
- inhibition at 1.25 µM (EGFR kinase): 61.2%
- inhibition at 2.5 µM (EGFR kinase): 64.4%
- inhibition at 5 µM (EGFR kinase): 76.7%
- inhibition at 10 µM (EGFR kinase): 83.7%
- Conc. (Average), ELISA read-out (EGFR kinase; sample at 0.15uM): 99.12
- Conc. (Average), ELISA read-out (EGFR kinase; sample at 0.31uM): 68.86
- Conc. (Average), ELISA read-out (EGFR kinase; sample at 0.62uM): 60.25
- Conc. (Average), ELISA read-out (EGFR kinase; sample at 1.25uM): 52.29
- Conc. (Average), ELISA read-out (EGFR kinase; sample at 2.5uM): 47.96
- Conc. (Average), ELISA read-out (EGFR kinase; sample at 5uM): 31.41
- Conc. (Average), ELISA read-out (EGFR kinase; sample at 10uM): 22.04
- IC50 (HeLa cells): 6.7 ± 0.67 µM
- IC50 (HepG2 cells): 13 ± 0.87 µM
- IC50 ([2]; Homo sapiens): 5.5 to 18.1 µM
- IC50 (PC-3 cells; PC-3, MTT): 9.1 ± 0.88 µM
- IC50 (MCF-7 cells): 13.7 ± 1.35 µM
- %Inhibition of the ABTS radical cation [1]: 55.1%

Compound: CN(C)C/C=C/C(=O)Nc1cc2c(Nc3ccc(F)c(Cl)c3)ncnc2cc1O[C@H]1CCOC1 [Afatinib, reference compound]
- IC50 (HeLa cells): 6.2 ± 0.67 µM
- IC50 (HepG2 cells): 5.4 ± 0.25 µM
- IC50 ([2]; Homo sapiens): 5.4 to 7.6 µM
- IC50 (PC-3 cells; Homo sapiens, PC-3, MTT): 7.6 µM
- IC50 (PC-3 cells; MTT): 7.7 ± 0.57 µM
- IC50 (MCF-7 cells): 7.1 ± 0.49 µM
